# Measurements published in ChEMBL document CHEMBL4334471, “Discovery of 1,8-disubstituted-[1,2,3]triazolo[4,5-c]quinoline derivatives as a new class of Hippo signaling pathway inhibitors” (Bioorg Med Chem Lett, 2019).
# Tests used:
# [1] = molecular target: Activin receptor type-1-like (Homo sapiens) (UniProt P37023); assay: Inhibition of recombinant human ALK1 (142 to end residues) assessed as residual activity at 10 uM using casein as substrate incubated for 40 mins in presence of [gamma-33ATP] by scintillation counting based radiometry assay relative to control
# Activin receptor type-1-like (Homo sapiens), sequence (P37023 whole entry): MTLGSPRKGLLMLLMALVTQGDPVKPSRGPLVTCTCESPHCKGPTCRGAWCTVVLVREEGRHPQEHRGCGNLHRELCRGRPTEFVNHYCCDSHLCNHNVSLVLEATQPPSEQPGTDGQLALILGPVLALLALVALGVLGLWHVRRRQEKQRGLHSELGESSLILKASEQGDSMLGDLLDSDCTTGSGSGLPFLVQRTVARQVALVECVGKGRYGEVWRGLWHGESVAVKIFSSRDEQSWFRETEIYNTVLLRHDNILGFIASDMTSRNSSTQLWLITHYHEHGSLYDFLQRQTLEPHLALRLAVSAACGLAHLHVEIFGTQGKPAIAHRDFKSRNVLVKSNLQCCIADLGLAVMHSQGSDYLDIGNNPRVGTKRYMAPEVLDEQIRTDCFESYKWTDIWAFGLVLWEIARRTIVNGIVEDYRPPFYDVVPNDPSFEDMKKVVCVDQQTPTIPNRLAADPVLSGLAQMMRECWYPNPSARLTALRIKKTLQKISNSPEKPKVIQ
# [2] = species: Homo sapiens; assay: Inhibition of recombinant human BRSK2 S251I mutant (2 to end residues) assessed as residual activity at 10 uM using KKLNRTLSFAEPG substrate incubated for 40 mins in presence of [gamma-33ATP] by scintillation counting based radiometry assay relative to control
# [3] = molecular target: Calcium/calmodulin-dependent protein kinase type 1 (Homo sapiens) (UniProt Q14012); assay: Inhibition of recombinant human CaMKIalpha (2 to end residues) assessed as residual activity at 10 uM using […] incubated for 40 mins in presence of [gamma-33ATP] by scintillation counting based radiometry assay relative to control
# Calcium/calmodulin-dependent protein kinase type 1 (Homo sapiens), sequence (Q14012 whole entry, looked up): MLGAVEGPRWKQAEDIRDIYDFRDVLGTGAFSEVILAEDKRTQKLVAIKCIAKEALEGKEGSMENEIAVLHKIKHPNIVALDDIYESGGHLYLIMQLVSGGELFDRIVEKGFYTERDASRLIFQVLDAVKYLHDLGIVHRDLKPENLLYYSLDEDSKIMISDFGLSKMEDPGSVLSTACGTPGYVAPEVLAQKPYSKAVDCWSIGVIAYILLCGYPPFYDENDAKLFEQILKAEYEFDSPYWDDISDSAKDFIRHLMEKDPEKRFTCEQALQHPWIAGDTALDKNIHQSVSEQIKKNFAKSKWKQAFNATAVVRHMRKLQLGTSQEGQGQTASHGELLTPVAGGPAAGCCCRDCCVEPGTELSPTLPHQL
# [4] = molecular target: Calcium/calmodulin-dependent protein kinase type II subunit alpha (Homo sapiens) (UniProt Q9UQM7); assay: Inhibition of recombinant full length human CaMK2alpha assessed as residual activity at 10 uM using KKLNRTLSFAEPG as substrate incubated for 40 mins in presence of [gamma-33ATP] by scintillation counting based radiometry assay relative to control
# [5] = molecular target: Calcium/calmodulin-dependent protein kinase type 1D (Homo sapiens) (UniProt Q8IU85); assay: Inhibition of recombinant full length human CaMK1delta assessed as residual activity at 10 uM using […] incubated for 40 mins in presence of [gamma-33ATP] by scintillation counting based radiometry assay relative to control
# [6] = molecular target: Dual specificity protein kinase CLK1 (Homo sapiens) (UniProt P49759); assay: Inhibition of recombinant human CLK1 (130 to end residues) assessed as residual activity at 10 uM using ERMRPRKRQGSVRRRV as substrate incubated 40 mins in presence of [gamma-33ATP] by scintillation counting based radiometry assay relative to control
# Dual specificity protein kinase CLK1 (Homo sapiens), sequence (P49759 whole entry, looked up): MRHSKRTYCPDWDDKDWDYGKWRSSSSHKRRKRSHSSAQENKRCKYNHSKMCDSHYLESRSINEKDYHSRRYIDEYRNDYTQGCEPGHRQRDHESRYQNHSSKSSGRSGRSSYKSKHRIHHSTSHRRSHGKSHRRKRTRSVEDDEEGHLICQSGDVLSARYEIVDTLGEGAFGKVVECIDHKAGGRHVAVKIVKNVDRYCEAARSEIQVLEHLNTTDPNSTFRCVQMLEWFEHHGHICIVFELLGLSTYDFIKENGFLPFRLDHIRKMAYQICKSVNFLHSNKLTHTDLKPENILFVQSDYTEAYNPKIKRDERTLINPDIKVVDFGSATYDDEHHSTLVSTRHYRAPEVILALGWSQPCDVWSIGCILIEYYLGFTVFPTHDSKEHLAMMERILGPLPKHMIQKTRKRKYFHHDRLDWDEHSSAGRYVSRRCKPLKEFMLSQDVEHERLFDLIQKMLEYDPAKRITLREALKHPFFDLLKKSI
# [7] = species: Homo sapiens; assay: Inhibition of recombinant human DDR1 V833L mutant (492 to end residues) assessed as residual activity at 10 uM using KKKSPGEYVNIEF as substrate at 40 mins in presence of [gamma-33ATP] by scintillation counting based radiometry assay relative to control
# [8] = test system: Epidermal growth factor receptor (Homo sapiens), P00533 [L861Q]; assay: Inhibition of recombinant human EGFR L861Q mutant (696 to end residues) assessed as residual activity at 10 uM using poly(Glu, Tyr) 4:1 as substrate at 40 mins in presence of [gamma-33ATP] by scintillation counting based radiometry assay relative to control
# [9] = test system: Epidermal growth factor receptor (Homo sapiens), P00533 [T790M]; assay: Inhibition of recombinant human EGFR T790M mutant (696 to end residues) assessed as residual activity at 10 uM using poly(Glu, Tyr) 4:1 as substrate at 40 mins in presence of [gamma-33ATP] by scintillation counting based radiometry assay relative to control
# [10] = species: Homo sapiens; assay: Inhibition of recombinant human MAPKAPK2 A399G mutant (46 to end residues) assessed as residual activity at 10 uM using KKLNRTLSVA as substrate incubated for 40 mins in presence of [gamma-33ATP by scintillation counting based radiometry assay relative to control
# [11] = species: Homo sapiens; assay: Inhibition of recombinant human MARK1 T20S mutant (2 to end residues) assessed as residual activity at 10 uM using KKKVSRSGLYRSPSMPENLNRPR as substrate incubated for 40 mins in presence of [gamma-33ATP by scintillation counting based radiometry assay relative to control
# [12] = molecular target: Hepatocyte growth factor receptor (Homo sapiens) (UniProt P08581); assay: Inhibition of recombinant human MET A1209G/V1290L mutant (974 to end residues) assessed as residual activity at 10 uM using KKKGQEEEYVFIE as substrate incubated for 40 mins in presence of [gamma-33ATP by scintillation counting based radiometry assay relative to control
# Hepatocyte growth factor receptor (Homo sapiens), sequence (P08581 whole entry): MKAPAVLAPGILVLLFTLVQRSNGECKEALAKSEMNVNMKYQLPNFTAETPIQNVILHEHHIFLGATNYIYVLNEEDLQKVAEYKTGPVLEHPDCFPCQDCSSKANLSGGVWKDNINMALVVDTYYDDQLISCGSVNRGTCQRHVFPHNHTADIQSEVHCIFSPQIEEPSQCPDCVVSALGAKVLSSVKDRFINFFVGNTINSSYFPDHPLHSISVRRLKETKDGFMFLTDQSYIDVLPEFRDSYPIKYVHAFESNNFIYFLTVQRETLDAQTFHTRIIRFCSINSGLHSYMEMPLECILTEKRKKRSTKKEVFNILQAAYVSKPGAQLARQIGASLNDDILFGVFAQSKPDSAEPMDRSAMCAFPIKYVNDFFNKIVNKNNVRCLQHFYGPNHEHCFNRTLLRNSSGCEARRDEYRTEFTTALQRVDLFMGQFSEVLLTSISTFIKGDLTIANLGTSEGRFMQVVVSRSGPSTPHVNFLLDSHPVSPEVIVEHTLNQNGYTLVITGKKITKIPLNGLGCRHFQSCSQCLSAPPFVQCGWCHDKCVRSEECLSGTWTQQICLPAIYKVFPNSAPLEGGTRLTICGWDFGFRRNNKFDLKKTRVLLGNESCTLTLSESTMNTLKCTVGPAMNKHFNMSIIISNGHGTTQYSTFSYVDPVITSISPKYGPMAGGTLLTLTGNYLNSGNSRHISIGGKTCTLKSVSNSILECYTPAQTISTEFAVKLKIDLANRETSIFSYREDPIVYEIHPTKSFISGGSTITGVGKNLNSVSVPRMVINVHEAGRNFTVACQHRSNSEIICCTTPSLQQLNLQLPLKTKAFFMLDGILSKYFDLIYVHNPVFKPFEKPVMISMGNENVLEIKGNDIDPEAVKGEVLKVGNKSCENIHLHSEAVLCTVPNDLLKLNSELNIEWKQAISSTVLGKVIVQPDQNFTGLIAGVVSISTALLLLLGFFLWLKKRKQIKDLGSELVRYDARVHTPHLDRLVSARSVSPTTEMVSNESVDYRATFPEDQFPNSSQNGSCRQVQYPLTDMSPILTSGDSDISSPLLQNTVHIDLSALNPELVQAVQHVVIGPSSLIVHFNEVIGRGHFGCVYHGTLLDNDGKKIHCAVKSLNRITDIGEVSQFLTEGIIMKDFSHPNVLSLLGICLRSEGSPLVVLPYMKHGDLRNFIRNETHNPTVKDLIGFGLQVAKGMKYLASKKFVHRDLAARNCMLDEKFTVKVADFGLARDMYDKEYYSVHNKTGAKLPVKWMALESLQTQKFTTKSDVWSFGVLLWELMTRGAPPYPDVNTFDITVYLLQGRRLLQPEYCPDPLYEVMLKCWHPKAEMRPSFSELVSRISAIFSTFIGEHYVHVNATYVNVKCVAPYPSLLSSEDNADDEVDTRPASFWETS
# [13] = molecular target: Dual specificity mitogen-activated protein kinase kinase 3 (Homo sapiens) (UniProt P46734); assay: Inhibition of recombinant human MKK3 assessed as residual activity at 10 uM by scintillation counting based radiometry assay relative to control
# Dual specificity mitogen-activated protein kinase kinase 3 (Homo sapiens), sequence (P46734 whole entry): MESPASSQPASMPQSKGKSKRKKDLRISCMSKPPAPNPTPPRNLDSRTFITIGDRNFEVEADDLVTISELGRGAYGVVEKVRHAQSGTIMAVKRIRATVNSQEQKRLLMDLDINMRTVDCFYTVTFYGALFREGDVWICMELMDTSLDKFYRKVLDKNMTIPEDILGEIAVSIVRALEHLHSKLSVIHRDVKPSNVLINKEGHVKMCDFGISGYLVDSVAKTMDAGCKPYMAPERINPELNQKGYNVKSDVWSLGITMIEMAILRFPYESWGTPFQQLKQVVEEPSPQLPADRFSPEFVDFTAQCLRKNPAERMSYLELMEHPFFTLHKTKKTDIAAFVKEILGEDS
# [14] = test system: Proto-oncogene tyrosine-protein kinase Src (Homo sapiens), P12931 [T341M]; assay: Inhibition of recombinant full length human SRC T341M mutant assessed as residual activity at 10 uM using GGEEEEYFELVKK as substrate incubated for 40 mins in presence of [gamma33P]ATP by scintillation counting based radiometry assay relative to control
# [15] = test system: Angiopoietin-1 receptor (Homo sapiens), Q02763 [Q939H,Q940H,Y897S]; assay: Inhibition of recombinant human TIE2 Q939H/Q940H/Y897S mutant (771 to end residues) assessed as residual activity at 10 uM using EFPIYDFLPAKKK as substrate incubated for 40 mins in presence of [gamma33P]ATP by scintillation counting based radiometry assay relative to control
# Angiopoietin-1 receptor (Homo sapiens), Q02763 [Q939H,Q940H,Y897S], sequence (Q02763 whole entry Y897S/Q939H/Q940H, the tested form may be a part): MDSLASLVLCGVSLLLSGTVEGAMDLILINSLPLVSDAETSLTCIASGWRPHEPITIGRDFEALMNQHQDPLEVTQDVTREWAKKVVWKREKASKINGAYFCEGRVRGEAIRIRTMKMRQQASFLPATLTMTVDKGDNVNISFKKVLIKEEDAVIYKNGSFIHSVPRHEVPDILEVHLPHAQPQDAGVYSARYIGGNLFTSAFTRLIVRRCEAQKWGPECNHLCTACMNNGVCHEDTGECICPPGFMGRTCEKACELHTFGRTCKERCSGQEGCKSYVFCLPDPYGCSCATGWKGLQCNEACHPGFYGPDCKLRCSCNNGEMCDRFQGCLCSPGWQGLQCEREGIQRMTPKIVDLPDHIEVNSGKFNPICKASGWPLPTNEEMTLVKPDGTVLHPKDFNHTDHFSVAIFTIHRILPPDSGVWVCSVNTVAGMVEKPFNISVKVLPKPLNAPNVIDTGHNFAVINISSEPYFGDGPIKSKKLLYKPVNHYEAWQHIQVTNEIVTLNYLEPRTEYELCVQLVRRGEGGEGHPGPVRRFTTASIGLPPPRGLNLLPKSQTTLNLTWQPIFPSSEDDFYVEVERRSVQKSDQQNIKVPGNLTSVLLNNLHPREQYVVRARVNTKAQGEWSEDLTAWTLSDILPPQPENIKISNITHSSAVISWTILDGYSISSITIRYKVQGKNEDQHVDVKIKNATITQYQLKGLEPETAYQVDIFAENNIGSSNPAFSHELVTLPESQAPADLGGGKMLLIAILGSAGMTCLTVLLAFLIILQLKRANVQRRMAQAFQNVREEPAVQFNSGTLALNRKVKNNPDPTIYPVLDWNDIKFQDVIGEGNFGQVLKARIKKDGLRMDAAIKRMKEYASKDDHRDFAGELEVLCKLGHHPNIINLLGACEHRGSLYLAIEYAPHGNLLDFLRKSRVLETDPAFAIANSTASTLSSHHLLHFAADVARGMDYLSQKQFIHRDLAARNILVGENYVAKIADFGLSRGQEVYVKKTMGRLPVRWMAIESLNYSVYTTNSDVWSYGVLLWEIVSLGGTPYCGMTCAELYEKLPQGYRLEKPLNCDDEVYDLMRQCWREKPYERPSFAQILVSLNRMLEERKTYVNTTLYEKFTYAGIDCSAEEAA
# [16] = molecular target: TRAF2 and NCK-interacting protein kinase (Homo sapiens) (UniProt Q9UKE5); assay: Inhibition of human TNIK (1 to 367 residues) assessed as residual activity at 10 uM using RLGRDKYKTLRQIRQ as substrate incubated for 40 mins in presence of [gamma33P]ATP by scintillation counting based radiometry assay relative to control
# [17] = molecular target: BDNF/NT-3 growth factors receptor (Homo sapiens) (UniProt Q16620); assay: Inhibition of recombinant human TRKB (455 to end residues) assessed as residual activity at 10 uM using poly(Glu, Tyr) 4:1 as substrate incubated for 40 mins in presence of [gamma33P]ATP by scintillation counting based radiometry assay relative to control
# BDNF/NT-3 growth factors receptor (Homo sapiens), sequence (Q16620 32-822 limits assumed): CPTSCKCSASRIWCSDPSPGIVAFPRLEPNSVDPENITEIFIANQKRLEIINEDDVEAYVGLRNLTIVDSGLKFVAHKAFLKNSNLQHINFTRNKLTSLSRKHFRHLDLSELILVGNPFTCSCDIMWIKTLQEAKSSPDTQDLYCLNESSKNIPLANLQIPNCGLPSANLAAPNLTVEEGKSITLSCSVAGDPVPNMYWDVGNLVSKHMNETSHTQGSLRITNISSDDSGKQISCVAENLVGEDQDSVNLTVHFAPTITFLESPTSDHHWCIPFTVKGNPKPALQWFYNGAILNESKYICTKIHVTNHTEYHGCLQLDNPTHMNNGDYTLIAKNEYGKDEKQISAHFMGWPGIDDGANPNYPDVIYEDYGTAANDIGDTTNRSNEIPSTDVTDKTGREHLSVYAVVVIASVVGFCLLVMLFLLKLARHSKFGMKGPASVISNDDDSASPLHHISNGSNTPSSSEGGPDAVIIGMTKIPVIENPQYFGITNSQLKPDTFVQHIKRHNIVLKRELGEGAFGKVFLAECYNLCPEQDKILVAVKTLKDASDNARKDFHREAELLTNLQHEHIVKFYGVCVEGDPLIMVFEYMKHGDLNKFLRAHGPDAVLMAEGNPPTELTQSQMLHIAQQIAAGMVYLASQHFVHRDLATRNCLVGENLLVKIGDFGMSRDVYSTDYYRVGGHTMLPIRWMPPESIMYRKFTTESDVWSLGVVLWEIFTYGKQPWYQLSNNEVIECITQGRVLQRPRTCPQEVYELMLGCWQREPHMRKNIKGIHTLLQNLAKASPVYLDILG
# [18] = molecular target: Testis-specific serine/threonine-protein kinase 2 (Homo sapiens) (UniProt Q96PF2); assay: Inhibition of recombinant full-length human TSSK2 assessed as residual activity at 10 uM using KKKVSRSGLYRSPSMPENLNRPR as substrate incubated for 40 mins in presence of [gamma33P]ATP by scintillation counting based radiometry assay relative to control
# [19] = molecular target: Tau-tubulin kinase 2 (Homo sapiens) (UniProt Q6IQ55); assay: Inhibition of recombinant human TTBK2 (1 to 331 residues) assessed as residual activity at 10 uM using casein as substrate incubated for 40 mins in presence of [gamma33P]ATP by scintillation counting based radiometry assay relative to control
# [20] = molecular target: Serine/threonine-protein kinase ULK3 (Homo sapiens) (UniProt Q6PHR2); assay: Inhibition of recombinant human full length ULK3 assessed as residual activity at 10 uM using casein as substrate incubated for 40 mins in presence of [gamma33P]ATP by scintillation counting based radiometry assay relative to control
# [21] = molecular target: Phosphatidylinositol 5-phosphate 4-kinase type-2 alpha (Homo sapiens) (UniProt P48426); assay: Inhibition of recombinant full-length human PIP4K2alpha assessed as residual activity at 10 uM using phosphatidylinositol 5-phosphate as substrate by HTRF assay relative to control
structure (smiles),measurement,setting,value
C[C@@H](c1ccccc1)n1nnc2cnc3ccc(-c4cnc5[nH]ccc5c4)cc3c21,Activity,[1],78%
same,Activity,[2],77%
same,Activity,[3],28%
same,Activity,[4],50%
same,Activity,[5],43%
same,Activity,[6],38%
same,Activity,[7],3%
same,Activity,[8],70%
same,Activity,[9],59%
same,Activity,[10],67%
same,Activity,[11],76%
same,Activity,[12],62%
same,Activity,[13],115%
same,Activity,[14],74%
same,Activity,[15],81%
same,Activity,[16],16%
same,Activity,[17],2%
same,Activity,[18],63%
same,Activity,[19],87%
same,Activity,[20],94%
same,Activity,[21],95%
